Data taken from patent publication US5438052A, “Cephalosporin derivatives” (Hoffmann-La Roche Inc., priority 1991, dated 1995).
Values after ≈ are worked out from the molar mass of the structure shown.

How the values were obtained:
C. freundii 902 = assay: Minimum inhibitory concentration in vitro, agar dilution method; assay type: cell-based; settings: Citrobacter freundii; C. freundii 902, agar dilution; read-out: MIC
Text: (§1) 1. Minimum Inhibitory Concentration in vitro
(§2) The activities ascertained, minimum inhibitory concentration (MIC) in μg/ml, are compiled in Table 1 hereinafter: […]

E. aerogenes CF153 = assay: as above; assay type: cell-based; settings: Klebsiella aerogenes; E. aerogenes CF153, agar dilution; read-out: MIC
Text: as §1, §2

E. cloacae 908R = assay: as above; assay type: cell-based; settings: Enterobacter cloacae; E. cloacae 908R, agar dilution; read-out: MIC
Text: as §1, §2

E. cloacae 908SSi = assay: as above; assay type: cell-based; settings: Enterobacter cloacae; E. cloacae 908SSi, agar dilution; read-out: MIC
Text: as §1, §2

E. cloacae P99 = assay: as above; assay type: cell-based; settings: Enterobacter cloacae
Text: as §1, §2

E. coli 25922 [1] = assay: as above; assay type: cell-based; settings: Escherichia coli; E. coli 25922, agar dilution; read-out: MIC
Text: as §1, §2

K. oxytoca 1082 = assay: as above; assay type: cell-based; settings: Klebsiella oxytoca; K. oxytoca 1082, agar dilution; read-out: MIC
Text: as §1, §2

K. pneumoniae 418 = assay: as above; assay type: cell-based; settings: Klebsiella pneumoniae; K. pneumoniae 418, agar dilution; read-out: MIC
Text: as §1, §2

P. aeruginosa 27853 = assay: as above; assay type: cell-based; settings: Pseudomonas aeruginosa; P. aeruginosa 27853, agar dilution; read-out: MIC
Text: as §1, §2

P. aeruginosa 799/61 = assay: as above; assay type: cell-based; settings: Pseudomonas aeruginosa; P. aeruginosa 799/61, agar dilution; read-out: MIC
Text: as §1, §2

P. aeruginosa 799/WT = assay: as above; assay type: cell-based; settings: Pseudomonas aeruginosa; P. aeruginosa 799/WT, agar dilution; read-out: MIC
Text: as §1, §2

P. aeruginosa BA = assay: as above; assay type: cell-based; settings: Pseudomonas aeruginosa; P. aeruginosa BA, agar dilution; read-out: MIC
Text: as §1, §2

P. aeruginosa MK1184 = assay: as above; assay type: cell-based; settings: Pseudomonas aeruginosa; P. aeruginosa MK1184, agar dilution; read-out: MIC
Text: as §1, §2

P. mirabilis 2117 = assay: as above; assay type: cell-based; settings: Proteus mirabilis; P. mirabilis 2117, agar dilution; read-out: MIC
Text: as §1, §2

P. vulgaris 1028 = assay: as above; assay type: cell-based; settings: Proteus vulgaris; P. vulgaris 1028, agar dilution; read-out: MIC
Text: as §1, §2

S. aureus 6538 = assay: as above; assay type: cell-based; settings: Staphylococcus aureus; S. aureus 6538, agar dilution; read-out: MIC
Text: as §1, §2

S. marcescens 69438 = assay: as above; assay type: cell-based; settings: Serratia marcescens; S. marcescens 69438, agar dilution; read-out: MIC
Text: as §1, §2

S. pyogenes 15 = assay: as above; assay type: cell-based; settings: Streptococcus pyogenes; S. pyogenes 15, agar dilution; read-out: MIC
Text: as §1, §2

E. coli 25922 [2] = assay: Experimental systemic septicaemia in the mouse; assay type: in vivo; settings: Escherichia coli, sc, 96 h; E. coli 25922, albino mice, s.c. 1 and 3 hours after infection, survival after 4 days; read-out: ED50
Description: (§3) 2. Experimental systemic septicaemia in the mouse
(§4) An experimental systemic septicaemia was produced in albino mice weighing 16-20 g by intraperitoneally injecting into the experimental animals a sample of a dilute culture of the test organism which had been grown overnight. The sample administered is calculated such that the dosage administered is about 5-100 times greater than the dosage which is required to kill 50% of untreated experimental animals within 48 hours. The bacteria were injected as a suspension in the culture broth. Groups of 5 experimental animals each were used not only for the control, but also for the treatment for each dosage tested. The products in accordance with the invention were administered subcutaneously as a suspension in Tween 80 (2%), whereby the concentrations were chosen such that each experimental animal received 500 μl per administration. The respective concentrations were administered twice, namely 1 and 3 hours after the infection (in the case of P. aeruginosa three times, namely 1, 3 and 5 hours after the infection). The ED50 is that dosage which protects 50% of the experimental animals and was calculated by means of the Probit method on the basis of the survial rate after 4 days following the infection. The ED50 values in mg/kg s.c. (subcutaneous) for representatives of the class of substance in accordance with the invention are given in Table 2 hereinafter.

[3] = tested on: Pseudomonas aeruginosa BA; assay: Experimental systemic septicaemia in the mouse; assay type: in vivo; settings: sc, 96 h, P. aeruginosa BA, albino mice, s.c. 1, 3 and 5 hours after infection, survival after 4 days, read-out: ED50
Description: as §3, §4

SMILES	MIC (C. freundii 902)	MIC (E. aerogenes CF153)	MIC (E. cloacae 908R)	MIC (E. cloacae 908SSi)	MIC (E. cloacae P99)	MIC (E. coli 25922 [1])	MIC (K. oxytoca 1082)	MIC (K. pneumoniae 418)	MIC (P. aeruginosa 27853)	MIC (P. aeruginosa 799/61)	MIC (P. aeruginosa 799/WT)	MIC (P. aeruginosa BA)	MIC (P. aeruginosa MK1184)	MIC (P. mirabilis 2117)	MIC (P. vulgaris 1028)	MIC (S. aureus 6538)	MIC (S. marcescens 69438)	MIC (S. pyogenes 15)	ED50 (E. coli 25922 [2])	ED50 [3]
Nc1nc(/C(=N/OCc2nc(=O)c(O)c[nH]2)C(=O)N[C@@H]2C(=O)N3C(C(=O)O)=C(CSc4nc(-c5ccccc5)ncc4-c4ccc(O)c(O)c4)CS[C@H]23)cs1 [Example 16, (6R,7R)-7-[(Z)-2-(2-amino-4-thiazolyl)-2-[[(1,4-dihydro-5-hydroxy-4-oxo-2-pyrimidinyl)methoxy]imino]acetamido]-3-[[[5-(3,4-dihydroxyphenyl)-2-phenyl-4-pyrimidinyl]thio]methyl]-8-oxo-5-thia-1-azabicyclo[4.2.0]oct-2-ene-2-carboxylic acid]	0.12 µg/mL (≈ 0.15 µM)	0.12 µg/mL (≈ 0.15 µM)	0.25 µg/mL (≈ 0.312 µM)	8 µg/mL (≈ 9.98 µM)	8 µg/mL (≈ 9.98 µM)	< 0.1 µg/mL	0.25 µg/mL (≈ 0.312 µM)	< 0.1 µg/mL	1 µg/mL (≈ 1.25 µM)	< 0.1 µg/mL	0.5 µg/mL (≈ 0.624 µM)	4 µg/mL (≈ 4.99 µM)	> 32 µg/mL	0.25 µg/mL (≈ 0.312 µM)	0.25 µg/mL (≈ 0.312 µM)	32 µg/mL (≈ 39.9 µM)	1 µg/mL (≈ 1.25 µM)	0.25 µg/mL (≈ 0.312 µM)	< 0.5 mg/kg	> 2 mg/kg
Cc1cc(SCC2=C(C(=O)O)N3C(=O)[C@@H](NC(=O)/C(=N\OCc4ccc(O)c(O)c4F)c4csc(N)n4)[C@H]3SC2)n2nc(COC(=O)c3ccc(O)c(O)c3)nc2n1 [Example 9]	< 0.1 µg/mL	< 0.1 µg/mL	0.12 µg/mL (≈ 0.141 µM)	4 µg/mL (≈ 4.68 µM)	8 µg/mL (≈ 9.37 µM)	< 0.1 µg/mL	< 0.1 µg/mL	< 0.1 µg/mL	< 0.1 µg/mL	< 0.1 µg/mL	–	< 0.1 µg/mL	< 0.1 µg/mL	< 0.1 µg/mL	< 0.1 µg/mL	8 µg/mL (≈ 9.37 µM)	< 0.1 µg/mL	1 µg/mL (≈ 1.17 µM)	< 0.05 mg/kg	0.24 mg/kg
CC(C)(O/N=C(\C(=O)N[C@@H]1C(=O)N2C(C(=O)O)=C(CSc3ncncc3-c3ccc(O)c(O)c3)CS[C@H]12)c1csc(N)n1)C(=O)NO [Example 19a, (6R,7R)-7-[(Z)-2-(2-amino-4-thiazolyl)-2-[[1-(hydroxycarbamoyl)-1-methylethoxy]imino]acetamido]-3-[[[5-(3,4-dihydroxyphenyl)-4-pyrimidinyl]thio]methyl]-8-oxo-5-thia-1-azabicyclo[4.2.0]oct-2-ene-2-carboxylic acid]	0.25 µg/mL (≈ 0.356 µM)	0.12 µg/mL (≈ 0.171 µM)	16 µg/mL (≈ 22.8 µM)	2 µg/mL (≈ 2.85 µM)	16 µg/mL (≈ 22.8 µM)	< 0.1 µg/mL	1 µg/mL (≈ 1.42 µM)	< 0.1 µg/mL	2 µg/mL (≈ 2.85 µM)	< 0.1 µg/mL	0.25 µg/mL (≈ 0.356 µM)	1 µg/mL (≈ 1.42 µM)	16 µg/mL (≈ 22.8 µM)	0.25 µg/mL (≈ 0.356 µM)	0.12 µg/mL (≈ 0.171 µM)	16 µg/mL (≈ 22.8 µM)	0.12 µg/mL (≈ 0.171 µM)	0.5 µg/mL (≈ 0.711 µM)	–	–
CC(C)(O/N=C(\C(=O)N[C@@H]1C(=O)N2C(C(=O)O)=C(CSc3nc(-c4ccccc4)ncc3-c3ccc(O)c(O)c3)CS[C@H]12)c1csc(N)n1)C(=O)NNC(=O)c1ccc(O)c(O)c1 [Example 46, (6R,7R)-7-[(Z)-2-(2-amino-4-thiazolyl)-2-[[1-[3-(3,4-dihydroxybenzoyl)carbazoyl]-1-methylethoxy]imino]acetamido]-3-[[[5-(3,4-dihydroxyphenyl)-2-phenyl-4-pyrimidinyl]thio]methyl]-8-oxo-5-thia-1-azabicyclo[4.2.0]oct-2-ene-2-carboxylic acid]	0.5 µg/mL (≈ 0.547 µM)	0.25 µg/mL (≈ 0.274 µM)	1 µg/mL (≈ 1.09 µM)	16 µg/mL (≈ 17.5 µM)	16 µg/mL (≈ 17.5 µM)	0.12 µg/mL (≈ 0.131 µM)	2 µg/mL (≈ 2.19 µM)	0.25 µg/mL (≈ 0.274 µM)	0.25 µg/mL (≈ 0.274 µM)	< 0.1 µg/mL	0.25 µg/mL (≈ 0.274 µM)	0.5 µg/mL (≈ 0.547 µM)	2 µg/mL (≈ 2.19 µM)	0.25 µg/mL (≈ 0.274 µM)	0.5 µg/mL (≈ 0.547 µM)	> 32 µg/mL	4 µg/mL (≈ 4.38 µM)	4 µg/mL (≈ 4.38 µM)	< 0.5 mg/kg	–
